Test: Chelatability (constant of calcium ion stability) test with calcium ion electrode
Assay type: physicochemical
Settings: 25° C., pH 10, 1 mmol/l chelating agent with equivalent 1 mmol/l calcium chloride
Experimental: To 1 mmol/l aqueous solution of this sodium aminopolycarboxylate, an equivalent amount of a 1 mmol/l aqueous solution of calcium chloride was added. Then the constant of calcium ion stability (pKCa^2+) was determined by measuring the calcium ion concentration at pH 10.0 by using a calcium ion electrode.
(1) Formation of Calibration Curve
By using calcium chloride, solutions having calcium concentrations of 0.1 mmol/l, 1.0 mmol/l and 10 mmol/l were prepared and the potential of each solution was measured. Based on the data thus obtained, a calibration curve of the logarithmic calcium ion concentration vs. potential was formed.
(2) Measurement of Constant of Stability
An aqueous solution (100 ml) was prepared by adding a chelating agent (1 mmol/l) and calcium chloride (1 mmol/l) at an equivalent ratio to an aqueous solution containing 0.1 mmol/l of ammonium chloride to achieve a constant ionic strength. After stirring this solution for 10 minutes, the potential of the solution at 25° C. at pH 10 was measured. Based on the calibration curve formed in (1), the calcium ion concentration corresponding to the potential thus measured was determined and the constant of stability was calculated on the assumption that the sample and calcium ion formed a complex at a ratio of 1:1.

O=C([O-])CC(NCCNC(CC(=O)[O-])C(=O)O)C(=O)[O-].[Na+].[Na+].[Na+] (stereo not shown) [trisodium N,N′-ethylenediaminedisuccinate, reference compound]
constant of calcium ion stability (pKCa2+): 3.8
